13 molecules from patent US20250230165A1, “HETEROCYCLIC COMPOUNDS FOR USE IN THE TREATMENT OF CANCER” (ARTIOS PHARMA LIMITED, priority 2021, published 2025) can be followed below.

Where a name gives a salt, the structure may show the parent alone.

The assay concerns the target T1, Human Polθ polymerase domain (aa1820-2590) (Homo sapiens, UniProt O75417).
T1 construct: Human Polθ polymerase domain (aa1820-2590) was expressed in E. coli; made in house; host or cells: E. coli
T1 sequence (O75417 1820-2590): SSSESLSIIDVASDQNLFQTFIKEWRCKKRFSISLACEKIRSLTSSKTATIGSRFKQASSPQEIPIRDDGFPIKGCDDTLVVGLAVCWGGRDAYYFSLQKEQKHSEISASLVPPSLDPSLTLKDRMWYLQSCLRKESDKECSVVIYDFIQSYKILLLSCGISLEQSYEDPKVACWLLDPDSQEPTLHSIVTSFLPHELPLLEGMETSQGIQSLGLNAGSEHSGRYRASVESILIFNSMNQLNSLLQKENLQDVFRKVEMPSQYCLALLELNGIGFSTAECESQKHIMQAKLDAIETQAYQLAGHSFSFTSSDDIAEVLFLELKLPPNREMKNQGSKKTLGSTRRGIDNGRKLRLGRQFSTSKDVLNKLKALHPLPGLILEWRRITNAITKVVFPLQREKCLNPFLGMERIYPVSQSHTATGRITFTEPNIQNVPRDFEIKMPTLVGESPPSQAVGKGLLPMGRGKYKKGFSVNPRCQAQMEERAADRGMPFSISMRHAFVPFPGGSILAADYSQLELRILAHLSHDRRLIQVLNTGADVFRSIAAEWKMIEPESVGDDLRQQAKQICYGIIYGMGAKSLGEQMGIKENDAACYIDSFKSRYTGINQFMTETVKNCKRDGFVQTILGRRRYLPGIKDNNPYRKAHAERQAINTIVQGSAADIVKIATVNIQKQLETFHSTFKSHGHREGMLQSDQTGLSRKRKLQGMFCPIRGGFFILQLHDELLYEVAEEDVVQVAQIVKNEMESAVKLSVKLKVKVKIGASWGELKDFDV
Description: Polθ Polymerase Domain Kinact/KI Assay (PicoGreen). As to conditions: 0.8 nM Polθ, 100 nM DNA substrate, kobs vs [I] fit for 2-step covalent inhibitor. The assay is classed as biochemical. In short, it runs like this: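 Covalent inhibitors were tested against E. coli-expressed enzyme (0.8 nM final) with 100 nM annealed DNA substrate and […] in Tris pH 7.5 buffer, 1% DMSO. Reactions were EDTA-quenched over a 0–60 min time course and product DNA detected by PicoGreen fluorescence.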
For the molecule `C=CC(=O)N1CC2(CN(CCN3C[C@H]4CC(=O)N(c5cc(C(F)(F)F)cc(C)n5)[C@@H]4C(=O)N(C)c4cccc(F)c43)C[C@@H](COC)N2)C1` [Example 6, (3aR,11aS)-5-(2-((S)-2-acryloyl-6-(methoxymethyl)-2,5,8-triazaspiro[3.5]nonan-8-yl)ethyl)-6-fluoro-10-methyl-1-(6-methyl-4-(trifluoromethyl)pyridin-2-yl)-1,3a,4,5,10,11a-hexahydro-2H-benzo[b]pyrrolo[2,3-f][1,4]diazocine-2,11(3H)-dione], the Kinact/Kl came out at 540000 M⁻¹ s⁻¹.

Molecule `C=CC(=O)N1CC(N2CCN(CCN3C[C@H]4CC(=O)N(c5cc(C(F)(F)F)cc(C)n5)[C@@H]4C(=O)N(C)c4cccc(Cl)c43)CC2)C1` [Example 12, (3aR,11aS)-5-(2-(4-(1-acryloylazetidin-3-yl)piperazin-1-yl)ethyl)-6-chloro-10-methyl-1-(6-methyl-4-(trifluoromethyl)pyridin-2-yl)-1,3a,4,5,10,11a-hexahydro-2H-benzo[b]pyrrolo[2,3-f][1,4]diazocine-2,11(3H)-dione] registered a Kinact/Kl of 1.71e+06 M⁻¹ s⁻¹.

The molecule `C=CC(=O)N1CC2(CN(CCN3C[C@H]4CC(=O)N(c5cc(C(F)(F)F)cc(C)n5)[C@@H]4C(=O)N(C)c4cccc(Cl)c43)C[C@@H](C)N2)C1` [Example 13, (3aR,11aS)-5-(2-((R)-2-acryloyl-6-methyl-2,5,8-triazaspiro[3.5]nonan-8-yl)ethyl)-6-chloro-10-methyl-1-(6-methyl-4-(trifluoromethyl)pyridin-2-yl)-1,3a,4,5,10,11a-hexahydro-2H-benzo[b]pyrrolo[2,3-f][1,4]diazocine-2,11(3H)-dione] registered a Kinact/Kl of 1.26e+06 M⁻¹ s⁻¹.

`C=CC(=O)N1CCN2CCN(CCN3C[C@H]4CC(=O)N(c5cc(C(F)(F)F)cc(C)n5)[C@@H]4C(=O)N(C)c4cccc(Cl)c43)CC2C1` (stereo partly drawn) [Example 14, (3aR,11aS)-5-(2-(8-acryloyloctahydro-2H-pyrazino[1,2-a]pyrazin-2-yl)ethyl)-6-chloro-10-methyl-1-(6-methyl-4-(trifluoromethyl)pyridin-2-yl)-1,3a,4,5,10,11a-hexahydro-2H-benzo[b]pyrrolo[2,3-f][1,4]diazocine-2,11(3H)-dione] registered a Kinact/Kl of 2.05e+06 M⁻¹ s⁻¹.

As to `C=CC(=O)N1CC(N2CCN(CCN3C[C@H]4CC(=O)N(c5cc(C(F)(F)F)cc(C)n5)[C@@H]4C(=O)N(C)c4cc(F)ccc43)CC2)C1` [Example 15, (3aR,11aS)-5-(2-(4-(1-acryloylazetidin-3-yl)piperazin-1-yl)ethyl)-8-fluoro-10-methyl-1-(6-methyl-4-(trifluoromethyl)pyridin-2-yl)-1,3a,4,5,10,11a-hexahydro-2H-benzo[b]pyrrolo[2,3-f][1,4]diazocine-2,11(3H)-dione], the Kinact/Kl worked out at 73000 M⁻¹ s⁻¹.

Consider `C=CC(=O)N1CC(N2CCN(CCN3C[C@H]4CC(=O)N(c5cc(C(F)(F)F)cc(C)n5)[C@@H]4C(=O)N(C)c4cc(F)cc(F)c43)CC2)C1` [Example 16, (3aR,11aS)-5-(2-(4-(1-acryloylazetidin-3-yl)piperazin-1-yl)ethyl)-6,8-difluoro-10-methyl-1-(6-methyl-4-(trifluoromethyl)pyridin-2-yl)-1,3a,4,5,10,11a-hexahydro-2H-benzo[b]pyrrolo[2,3-f][1,4]diazocine-2,11(3H)-dione], for which the Kinact/Kl came to 130000 M⁻¹ s⁻¹.

The molecule `C=CC(=O)N1CC(N2CCN(CCN3C[C@H]4CC(=O)N(c5cc(C(F)(F)F)cc(C)n5)[C@@H]4C(=O)N(C)c4cc(F)cc(Cl)c43)CC2)C1` [Example 17, (3aR,11aS)-5-(2-(4-(1-acryloylazetidin-3-yl)piperazin-1-yl)ethyl)-6-chloro-8-fluoro-10-methyl-1-(6-methyl-4-(trifluoromethyl)pyridin-2-yl)-1,3a,4,5,10,11a-hexahydro-2H-benzo[b]pyrrolo[2,3-f][1,4]diazocine-2,11(3H)-dione] showed a Kinact/Kl of 1.19e+06 M⁻¹ s⁻¹.

In the case of `C=CC(=O)N1CC(N2CCN(CCN3C[C@H]4CC(=O)N(c5cc(C(F)(F)F)cc(C)n5)[C@@H]4C(=O)N(C)c4cc(F)cc(C)c43)CC2)C1` [Example 18, (3aR,11aS)-5-(2-(4-(1-acryloylazetidin-3-yl)piperazin-1-yl)ethyl)-8-fluoro-6,10-dimethyl-1-(6-methyl-4-(trifluoromethyl)pyridin-2-yl)-1,3a,4,5,10,11a-hexahydro-2H-benzo[b]pyrrolo[2,3-f][1,4]diazocine-2,11(3H)-dione], the Kinact/Kl was 1.18e+06 M⁻¹ s⁻¹.

As to `C=CC(=O)N1CC(N2CCN(CCN3C[C@H]4CC(=O)N(c5cc(C(F)(F)F)cc(C)n5)[C@@H]4C(=O)N(C)c4cc(F)cc(C5CC5)c43)CC2)C1` [Example 19, (3aR,11aS)-5-(2-(4-(1-acryloylazetidin-3-yl)piperazin-1-yl)ethyl)-6-cyclopropyl-8-fluoro-10-methyl-1-(6-methyl-4-(trifluoromethyl)pyridin-2-yl)-1,3a,4,5,10,11a-hexahydro-2H-benzo[b]pyrrolo[2,3-f][1,4]diazocine-2,11(3H)-dione], the Kinact/Kl is 350000 M⁻¹ s⁻¹.

`C=CC(=O)N1CC(N2CCN(CCN3C[C@H]4CC(=O)N(c5cc(C(F)(F)F)cc(C)n5)[C@@H]4C(=O)N(C)c4c(F)c(F)cc(Cl)c43)CC2)C1` [Example 20, (3aR,11aS)-5-(2-(4-(1-acryloylazetidin-3-yl)piperazin-1-yl)ethyl)-6-chloro-8,9-difluoro-10-methyl-1-(6-methyl-4-(trifluoromethyl)pyridin-2-yl)-1,3a,4,5,10,11a-hexahydro-2H-benzo[b]pyrrolo[2,3-f][1,4]diazocine-2,11(3H)-dione] yielded a Kinact/Kl of 1.12e+06 M⁻¹ s⁻¹.

`Cc1cc(C(F)(F)F)cc(N2C(=O)C[C@@H]3CN(CCN4CCOC5(C4)CN(C(=O)/C=C/CN(C)C)C5)c4c(F)cccc4N(C)C(=O)[C@H]32)n1` [Example 27, (3aR,11aS)-5-(2-(2-((E)-4-(dimethylamino)but-2-enoyl)-5-oxa-2,8-diazaspiro[3.5]nonan-8-yl)ethyl)-6-fluoro-10-methyl-1-(6-methyl-4-(trifluoromethyl)pyridin-2-yl)-1,3a,4,5,10,11a-hexahydro-2H-benzo[b]pyrrolo[2,3-f][1,4]diazocine-2,11(3H)-dione Hydrochloride] gave a Kinact/Kl of 1.05e+06 M⁻¹ s⁻¹.

The molecule `C=CC(=O)N1CC(N2CCN(CCN3C[C@H]4CC(=O)N(c5cc(C(F)(F)F)cc(C)n5)[C@@H]4C(=O)N(C)c4cccc(F)c43)C[C@@H]2CF)C1` [Example 28, (3aR,11aS)-5-(2-((R)-4-(1-acryloylazetidin-3-yl)-3-(fluoromethyl)piperazin-1-yl)ethyl)-6-fluoro-10-methyl-1-(6-methyl-4-(trifluoromethyl)pyridin-2-yl)-1,3a,4,5,10,11a-hexahydro-2H-benzo[b]pyrrolo[2,3-f][1,4]diazocine-2,11(3H)-dione] gave a Kinact/Kl of 350000 M⁻¹ s⁻¹.

With `C=CC(=O)N1CC(N2CCN(CCN3C[C@H]4CC(=O)N(c5cc(C(F)(F)F)cc(C)n5)[C@@H]4C(=O)N(C)c4cccc(F)c43)C[C@H](F)C2)C1` [Example 29, (3aR,11aS)-5-(2-((S)-4-(1-acryloylazetidin-3-yl)-6-fluoro-1,4-diazepan-1-yl)ethyl)-6-fluoro-10-methyl-1-(6-methyl-4-(trifluoromethyl)pyridin-2-yl)-1,3a,4,5,10,11a-hexahydro-2H-benzo[b]pyrrolo[2,3-f][1,4]diazocine-2,11(3H)-dione], the Kinact/Kl is 320000 M⁻¹ s⁻¹.
